Test results: patent publication US8999964B2, “TGR5 modulators and methods of use thereof” (Intercept Pharmaceuticals, Inc., priority 2008, dated 2015)
Where a name gives a salt, the structure may show the parent alone.

Assays:
[1] = molecular target: T1, hFXR (Homo sapiens, UniProt Q96RI1); assay: Alphascreen coactivator recruitment assay on FXR
T1 sequence (Q96RI1 262-486 limits assumed): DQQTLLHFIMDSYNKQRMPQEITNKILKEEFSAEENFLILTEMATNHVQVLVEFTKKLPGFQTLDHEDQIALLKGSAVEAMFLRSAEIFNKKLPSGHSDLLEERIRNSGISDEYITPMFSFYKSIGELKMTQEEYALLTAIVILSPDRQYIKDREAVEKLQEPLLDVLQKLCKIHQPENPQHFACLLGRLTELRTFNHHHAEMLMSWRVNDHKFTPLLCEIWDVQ
Protocol: Activity on FXR was assayed by using Alphascreen technology in a coactivator recruitment assay. AlphaScreen is a bead-based chemistry assay used to study biomolecular interactions. Binding of molecules captured on the beads leads to an energy transfer from one bead to the other, ultimately producing a luminescent signal. When the partners interact, chemical energy is transferred from Donor to Acceptor beads and a signal is produced. Upon bile acids stimulation the GST-FXR-LBD interacts with the Src-1 peptide. Anti-GST-coated Acceptor beads were used to capture the GST-fusion FXR-LBD whereas the biotinylated-SRC-1 peptide was captured by the streptavidin Donor beads. Upon illumination at 680 nm chemical energy is transferred from Donor to Acceptor beads across the complex streptavidin-Donor/Src-1-Biotin/GSTFXR-LBD/Anti-GST-Acceptor and a signal is produced. The assay was performed in white, low-volume, 384-well Optiplates (PerkinElmer) using a final volume of 25 μl containing final concentrations of 10 nM of purified GST-tagged FXR-LBD protein, 30 nM biotinylated Src-1 peptide, 20 μg/ml anti-GST acceptor beads acceptor beads and 10 μg/ml of streptavidin donor bead (PerkinElmer). […] After the addition of the detection mix (acceptor and donor beads), the plates were incubated in the dark for 4 h at room temperature and then were read with an Envision microplate analyzer (PerkinElmer). […]

[2] = test system: intestinal bacteria; assay: In vitro metabolic stability in human stools culture; format: in vitro ADME
Protocol: Homogenized fresh human stools (500 mg) were transferred into sterile vials to which 5 mL of sterilized chopped meat-glucose medium (Scott Lab., Fiskville, R.I.) was added. BAs were then added at a final concentration of 0.05 mM. Vials were incubated at 37° C.; then, at 0, 1, 2, 4, 8 and 24 h after the addition of the BA, the reaction was stopped with 150 μL of 30% KOH. The samples were centrifuged at 3500 rpm for 10 min; from the supernatant the BA were isolated by C-18 solid-phase extraction and analyzed by TLC and HPLC-ES-MS/MS.
Thin-layer chromatography (TLC), utilizing silica gel 0.25 mm thickness plates (Merck, Darmstat, Germany), was employed as the first screening test. The solvent system used for the separation of conjugated BA was composed of propionic acid/isoamyl acetate/water/N-propanol (3:4:1:2, v/v/v/v; solvent I), and that of the unconjugated BA was acetic acid/carbon tetrachloride/isopropyl ether/isoamyl acetate/water/N-propanol/benzene (1:4:6:8:2:2, v/v/v/v/v/v; solvent II).

[3] = molecular target: T2, LXRα (Homo sapiens, UniProt Q13133); assay: LXR coactivator recruitment (Alphascreen); format: biochemical; conditions: Table 6
T2 sequence (Q13133 1-447): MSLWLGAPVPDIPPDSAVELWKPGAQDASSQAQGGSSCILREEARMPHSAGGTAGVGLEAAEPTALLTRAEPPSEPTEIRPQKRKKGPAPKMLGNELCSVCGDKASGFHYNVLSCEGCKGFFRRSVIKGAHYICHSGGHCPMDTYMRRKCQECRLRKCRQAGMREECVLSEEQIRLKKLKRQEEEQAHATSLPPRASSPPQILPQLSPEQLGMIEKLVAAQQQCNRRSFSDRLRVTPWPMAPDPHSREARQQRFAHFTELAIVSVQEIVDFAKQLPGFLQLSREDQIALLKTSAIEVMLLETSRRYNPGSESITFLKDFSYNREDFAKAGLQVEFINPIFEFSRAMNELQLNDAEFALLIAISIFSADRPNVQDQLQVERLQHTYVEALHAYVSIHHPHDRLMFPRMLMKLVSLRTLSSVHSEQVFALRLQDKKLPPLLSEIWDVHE

[4] = in vitro; conditions: human
[5] = molecular target: T3, PXR (Homo sapiens, UniProt O75469); assay: PXR ligands competition assay (binding assay); conditions: Table 6
T3 sequence (O75469 1-434): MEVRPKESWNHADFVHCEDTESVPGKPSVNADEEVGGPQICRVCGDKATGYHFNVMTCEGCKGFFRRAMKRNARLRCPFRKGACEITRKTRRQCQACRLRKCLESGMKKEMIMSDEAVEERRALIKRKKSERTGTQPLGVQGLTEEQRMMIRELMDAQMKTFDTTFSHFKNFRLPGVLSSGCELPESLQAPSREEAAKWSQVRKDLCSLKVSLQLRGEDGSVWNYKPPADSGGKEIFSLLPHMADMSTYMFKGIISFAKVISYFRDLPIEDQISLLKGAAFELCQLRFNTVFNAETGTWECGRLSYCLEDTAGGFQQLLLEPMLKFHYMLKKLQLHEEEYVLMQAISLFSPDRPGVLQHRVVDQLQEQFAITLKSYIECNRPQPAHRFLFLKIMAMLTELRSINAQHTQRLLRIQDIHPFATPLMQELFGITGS

[6] = molecular target: T4, hTGR5 (Homo sapiens, UniProt Q8TDU6); assay: FRET assay (intracellular cAMP) in NCI-H716 cells; format: cell-based; parameters: Human intestinal cell lines (NCI-H716) were plated in 96-well plates; endogenous in cells; host or cells: NCI-H716
T4 sequence (Q8TDU6 1-330): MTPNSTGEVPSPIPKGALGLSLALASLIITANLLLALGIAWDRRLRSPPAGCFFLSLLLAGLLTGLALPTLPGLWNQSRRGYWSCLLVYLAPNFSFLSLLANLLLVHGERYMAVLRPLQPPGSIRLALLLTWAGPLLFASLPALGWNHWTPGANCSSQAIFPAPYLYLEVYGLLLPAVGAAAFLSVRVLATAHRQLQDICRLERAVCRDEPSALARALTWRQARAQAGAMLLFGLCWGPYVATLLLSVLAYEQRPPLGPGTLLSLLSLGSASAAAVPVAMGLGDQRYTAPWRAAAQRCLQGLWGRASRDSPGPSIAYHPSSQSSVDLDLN
Protocol: The receptor binding assay was performed by measuring the level of cyclic AMP (cAMP) using FRET assay. Human intestinal cell lines (NCI-H716) were plated in 96-well plates coated with 0.75 mg/ml Matrigel (BD Biosciences) according to manufacturer's instructions just prior to use, at a density of 12×10^3 cells/well in DMEM supplemented with 10% (v/v) FBS, 100 units/ml penicillin and 100 μg/ml streptomycin sulfate, and cultured for 24 h, which allowed cell adhesion to the bottom of the plate. The cells were washed twice with PBS and medium was exchanged for cAMP assay medium [OPTIMEM containing 0.1% (w/v) BSA and 1 mM 3-isobutyl-1-methylxanthine (IBMX)]. […] The level of intracellular cAMP was determined with Lance kit (PerkinElmer). Litocholic acid was used as control ligand. Z′ factor was used to validate assays. Non linear regression curves, without constraints, were performed by using four parameter equation and GraphPad Prism Software (GraphPad Inc.), to obtain the EC50 values.
After subtracting the average value of the basal (vehicle-treated) condition, values were applied to EC50 and/or efficacy determinations. Calculation of average EC50 and comparison of the EC50 between different compounds were done after transformation to logarithms.

[7] = Bile fistula rat, femoral (iv) infusion: bile flow, biliary secretion, metabolism; conditions: for Conc. in bile: rat bile; for Secretion (biliary): rat
[8] = femoral infusion 1 μmol/kg/min 1 h, 75 min

CC[C@H]1[C@@H](O)[C@@H]2[C@H](CC[C@]3(C)[C@@H]([C@H](C)CCC(=O)O)[C@@H](O)C[C@@H]23)[C@@]2(C)CC[C@@H](O)C[C@@H]12 [Compound 10, 3α,7α,16β-trihydroxy-6α-ethyl-5β-cholan-24-oic acid sodium salt]
EC50 [1]: 12 µM
Compound recovered unmodified in human stool cultures ([2]; after 24 hour incubation, 0.05 mM, 37° C.): more than 85%
Side chain stability to intestinal bacteria ([2]; human stool cultures): very stable for side chain metabolism
LXRα Activation EC50 [3]: No activity
EC50 at 4 h [4]: > 1000 µM
IC50 [5]: 64 µM
EC50 ([6]; FRET (cAMP) NCI-H716 hTGR5 EC50, Table 1, NCI-H716 cells): 0.65 µM
EC50 ([6]; TGR5 Activation EC50, Table 6, cAMP level on NCI-H716): 0.6 µM
Hepatic metabolism, species in bile after iv administration ([7]; bile fistula rat, mass spectrometry): secreted in bile as such and mainly conjugated with taurine
Conc. in bile [7, 8]: 40 µM
Secretion (biliary) [7, 8]: 0.002 µmol/kg/min
Biliary secretion after iv infusion ([7]; femoral infusion 1 μmol/kg/min, bile fistula rat): not efficient
Conc. in bile ([7]; femoral infusion, 90 min): 2300 µM
Conc. in bile ([7]; femoral infusion, 120 min): 900 µM
Conc. in bile ([7]; femoral infusion, 150 min): 60 µM
Conc. in bile ([7]; femoral infusion, 180 min): 40 µM
Conc. in bile ([7]; femoral infusion, 210 min): 20 µM
Secretion (biliary) ([7]; femoral infusion, 90 min): 0.127 µmol/kg/min
Secretion (biliary) ([7]; femoral infusion, 120 min): 0.065 µmol/kg/min
Secretion (biliary) ([7]; femoral infusion, 150 min): 0.004 µmol/kg/min
Secretion (biliary) ([7]; femoral infusion, 180 min): 0.003 µmol/kg/min
Secretion (biliary) ([7]; femoral infusion, 210 min): 0.001 µmol/kg/min
